Values of other authors as cited in paper PMC7395068, “The evolution of strategies to minimise the risk of human drug-induced liver injury (DILI) in drug discovery and development” (Archives of Toxicology, 2020).
Where two headings read alike, the source gives them in different places.

Assays:
PHH = details: cited from earlier work
[1] = cited from earlier work
hLiMTs = details: cited from earlier work
[2] = cited from earlier work; remark: listed apart in the source
[3] = system: primary human hepatocytes, NIH3T3 fibroblasts, BSEP, CYP3A4; details: In vitro Assay; ref Schadt 2015; cited from earlier work
HepG2 cells [4] = details: In vitro Assay; ref O'Brien 2006; cited from earlier work
HepG2 cells [5] = details: In vitro Assay; ref Persson 2013; cited from earlier work
[6] = system: isolated mouse liver mitochondria; details: In vitro Assay; ref Porceddu 2012; cited from earlier work
human hepatocytes = details: In vitro Assay; ref Xu 2008; cited from earlier work
[7] = In vitro Assay, ref Proctor 2017

C[N+](C)(C)C[C@H](O)CC(=O)[O-] [levocarnitine]
PHH ATP <100uM (PHH; [7]): -VE
In vivo DILI ([1]; ref Proctor 2017): -VE
hLiMTs ATP <100uM (hLiMTs; [7]): -VE

Cc1cnc(NC(=O)C2=C(O)c3ccccc3S(=O)(=O)N2C)s1 [meloxicam]
DILI +VE (5-8), DILI -VE (-4) ([2]; in vivo): +VE
DILI severity category ([2]; in vivo): vLess-DILI-Concern
PHH ATP <100uM (PHH): -VE
hLiMTs ATP <100uM (hLiMTs): -VE
Cellular toxicity (3T3 cells) [3]: -VE
Combined Assay [3]: -VE
GSH adduct HML [3]: -VE
Hepatocyte cellular toxicity [3]: -VE
MitoTox 3T3 [3]: -VE
TDI CYP3A4 [3]: -VE
hBSEP inhibition [3]: -VE

CO[C@@]12[C@H](COC(N)=O)C3=C(C(=O)C(C)=C(N)C3=O)N1C[C@@H]1N[C@@H]12 [mitomycin]
PHH ATP <100uM (PHH): +VE (key: +VE: IC50 threshold of 100 µM)

O=C(CCNNC(=O)c1ccncc1)NCc1ccccc1 [nialamide]
DILI +VE (5-8), DILI -VE (-4) ([2]; ref Chen 2016): +VE
DILI severity category ([2]; ref Chen 2016): vMost-DILI-Concern
Structural based (HCI) (HepG2 cells [4]): +VE (lowest HCI endpoint IC50 (or in the absence of dose–response < 100 µM) < 30 × total human plasma exposure levels (Cmax.tot))
In vivo DILI ([1]; ref O'Brien 2006): -VE
In vivo DILI ([1]; ref Persson 2013): -VE
Cluser analysis (HepG2 cells [5]): -VE
Structural based (HCI) (HepG2 cells [5]): -VE

CO[C@@H]1[C@@H](OC(N)=O)[C@@H](O)[C@H](Oc2ccc3c(O)c(NC(=O)c4ccc(O)c(CC=C(C)C)c4)c(=O)oc3c2C)OC1(C)C [novobiocin]
Structural based (HCI) (HepG2 cells [4]): -VE
In vivo DILI ([1]; ref O'Brien 2006): +VE
In vivo DILI ([1]; ref Persson 2013): +VE
In vivo DILI ([1]; ref Porceddu 2012): +VE
In vivo DILI ([1]; ref Xu 2008): +VE
Cluser analysis (HepG2 cells [5]): -VE
Structural based (HCI) (HepG2 cells [5]): -VE
in vitro data EC2<=1x Cmax [6]: -VE
in vitro data EC20<=2uM [6]: +VE
Structural based (HCI) (human hepatocytes): +VE

CC[N+](C)(CC)CCOC(=O)C(O)(c1ccccc1)C1CCCCC1 (stereo not drawn) [oxyphenonium]
Structural based (HCI) (HepG2 cells [4]): -VE
In vivo DILI ([1]; ref O'Brien 2006): -VE
In vivo DILI ([1]; ref Persson 2013): -VE
In vivo DILI ([1]; ref Xu 2008): -VE
Cluser analysis (HepG2 cells [5]): -VE
Structural based (HCI) (HepG2 cells [5]): -VE
Structural based (HCI) (human hepatocytes): -VE

OC(CCN1CCCC1)(c1ccccc1)C1CCCCC1 (stereo not drawn) [procyclidine]
DILI +VE (5-8), DILI -VE (-4) ([2]; in vivo): -VE
DILI severity category ([2]; in vivo): vNo-DILI-Concern
PHH ATP <100uM (PHH): +VE (key: +VE: IC50 threshold of 100 µM)
In vivo DILI ([1]; in vivo): -VE
hLiMTs ATP <100uM (hLiMTs): -VE

Cn1c(=O)c2[nH]cnc2n(C)c1=O [theophylline]
PHH ATP <100uM (PHH): -VE
hLiMTs ATP <100uM (hLiMTs): -VE
Cellular toxicity (3T3 cells) [3]: -VE
Combined Assay [3]: -VE
GSH adduct HML [3]: -VE
Hepatocyte cellular toxicity [3]: -VE
MitoTox 3T3 [3]: -VE
TDI CYP3A4 [3]: -VE
hBSEP inhibition [3]: -VE

Cc1ncc(C[n+]2csc(CCO)c2C)c(N)n1 [thiamine]
DILI +VE (5-8), DILI -VE (-4) ([2]; ref Chen 2016): -VE
DILI severity category ([2]; ref Chen 2016): vNo-DILI-Concern
Structural based (HCI) (HepG2 cells [4]): +VE (lowest HCI endpoint IC50 (or in the absence of dose–response < 100 µM) < 30 × total human plasma exposure levels (Cmax.tot))
In vivo DILI ([1]; ref O'Brien 2006): -VE
In vivo DILI ([1]; ref Persson 2013): -VE
Cluser analysis (HepG2 cells [5]): -VE
Structural based (HCI) (HepG2 cells [5]): -VE

CC1(C)O[C@@H]2[C@@H](CO[C@@]3(COS(N)(=O)=O)OC(C)(C)O[C@@H]23)O1 [topiramate]
DILI +VE (5-8), DILI -VE (-4) ([2]; ref Chen 2016): +VE
DILI severity category ([2]; ref Chen 2016): vLess-DILI-Concern
Structural based (HCI) (HepG2 cells [4]): +VE (lowest HCI endpoint IC50 (or in the absence of dose–response < 100 µM) < 30 × total human plasma exposure levels (Cmax.tot))
In vivo DILI ([1]; ref O'Brien 2006): -VE
In vivo DILI ([1]; ref Persson 2013): -VE
Cluser analysis (HepG2 cells [5]): -VE
Structural based (HCI) (HepG2 cells [5]): -VE

CC1=C(/C=C/C(C)=C/C=C/C(C)=C/C(=O)O)C(C)(C)CCC1 [tretinoin]
DILI +VE (5-8), DILI -VE (-4) ([2]; ref Chen 2016): -VE
DILI severity category ([2]; ref Chen 2016): Ambiguous DILI-concern
PHH ATP <100uM (PHH; [7]): -VE
In vivo DILI ([1]; ref Proctor 2017): +VE
hLiMTs ATP <100uM (hLiMTs; [7]): +VE (IC50 threshold of 100 µM)
